From patent publication US8835644B2, “Broad spectrum benzothiophene-nitrothiazolide and other antimicrobials” (University of Virginia Patent Foundation, priority 2009, dated 2014) come the findings set out here.

The test system of assay [1] is E. coli 042 aggR-lacZ. Nature of the assay: Reporter gene fusions aggR-lacZ, aafA-phoA. In kind it is cell-based, Escherichia coli. The following applies: β-galactosidase, static growth, 12 μg/ml NTZ. On the procedure: Reporter gene fusions were provided by James Nataro (University of Maryland) and included E. coli 042 aggR-lacZ and E. coli 042 aafA-phoA (3.4.14 and 2.94) (3) and an undefined promoterless lacZ control strain of E. coli 042. Strains were grown without shaking in MinA-G medium supplemented with 0, 12 or 25 μg/ml of NTZ for 16 h at 37° C. β-Galactosidase activity was determined spectrophotometrically and reported in Miller units (24). Alkaline phosphatase activity was also determined spectrophotometrically using p-nitrophenol as previously described (23). All assays were performed in triplicate in three independent experiments and the mean and standard deviation are reported.
For orientation: A reporter such as luciferase makes a cellular process visible.

Assay [2] deals with S. epidermidis strain 9142. Description: Biofilm determination, crystal violet, S. epidermidis. It counts as cell-based, Staphylococcus epidermidis. As to the method:
Staphylococcal strains were cultured overnight in TSB at 37° C. with shaking, diluted in fresh medium to an OD600 of 0.01 and 200 W was dispensed into sterile flat bottom polystyrene 96 well microtiter plates (Costar 3596, Corning Inc.). […] Each compound and dilution was tested in triplicate. The plates were incubated overnight at 37° C. in a humidified incubator, without shaking and both growth and biofilm accumulation were determined at 16 h.
Following recording of turbidities, the culture medium was aspirated and the wells were washed three times with distilled water, blotted on paper towels, and fixed with 75% ethanol for 10 minutes.
To visualize biofilm material, 0.5% crystal violet was added to each well and after 5 minutes was removed and the wells washed three times with distilled water. Plates were read using a microplate reader at a wavelength of 570 nm. The dye was then extracted by adding 200 W of 95% ethanol, and the absorbance was read again at 570 nm. All assays were performed in triplicate and the mean and standard deviation determined. Generally, the ethanol-solubilized crystal violet was more reliable and these determinations are reported throughout.

The test system of assay [3] is EAEC JM221 (Type 1 fimbriae). Description: Hemagglutination of guinea pig erythrocytes, EAEC JM221. Note: key: +++ = strong hemagglutination reaction; + weak; − no hemagglutination. It counts as cell-based, Escherichia coli. As to conditions: EAEC JM221 grown statically in LB 48 h with 20 μg/ml NTZ. As to the method: HA assays were performed in 96-well microplates as described in (1). Bacteria grown over night without shaking (MinA-G medium with and without 25 μg/ml NTZ) were suspended in PBS and diluted to OD660 of […] was mixed with an equal volume of 3% (vol/vol) sheep erythrocyte suspension containing 1% mannose, except when type I fimbriae producing strains were assayed. In the latter, bacteria were grown statically in LB medium (with and without NTZ) for 48 h and HA was determined with guinea pig erythrocytes. HA reactions were incubated at 4° C. for […] HA was determined visually against controls receiving no NTZ. All assays were prepared in triplicate and repeated twice.

As usually defined, the IC50 is the concentration that gives 50% inhibition.

In brackets after ≈: the same amount, converted by molar mass. Several values for one entry are separate records, joined by “and”; a condition that tells them apart may be missing. Equal entries are not always repeated. Where two headings read alike, the source gives them in different places.

Consider `CC(=O)Oc1ccccc1C(=O)Nc1ncc([N+](=O)[O-])s1` [Nitazoxanide, 2-(acetyloxy)-N-(5-nitro-2-thiazolyl)benzamide, reference compound], for which the “Increase in aggR:lacZ expression over untreated controls” value in assay [1] is roughly 2.5 fold. In assay [2] (S. epidermidis strain 9142, crystal violet, listed as NTZ), this compound yielded an IC50 biofilm production of 4 µg/mL (≈ 13 µM). For the same compound, the IC50 in assay [2] (Staphylococcus epidermidis, 9142, S. epidermidis strain 9142, crystal violet, read-out: IC50 biofilm production) was 2.5 µg/mL and ~8 µM. Moreover, in assay [2] (Staphylococcus epidermidis, 9142, clinical S. epidermidis isolates and strain 5179-R1, read-out: IC50 biofilm formation, all strains tested), the IC50 was in the range of 2.5 to 5 µg/mL (≈ 8.14 to 16.3 µM). Moreover, the “Biofilm accumulation on the bottom of flasks” value in assay [2] (static (microaerobic) growth, 15 μg/ml) is reported as “completely ablated”. For the same compound, in assay [3], the “HA (guinea pig erythrocytes), bacterial OD660 0.5” value is on record as “−”; the “HA (guinea pig erythrocytes), bacterial OD660 1.0” value is recorded as “−”; the “HA (guinea pig erythrocytes), bacterial OD660 1.5” value is “+”.
